Assay results from the NIST ThermoML archive (doi:10.1016/j.tca.2013.10.028).

Assays:
[1] = an = ratio of the nth substance listed; settings: for surface tension liquid-gas: Ring tensiometer; for electrical conductivity / viscosity / mass density: 101 kPa, Liquid; for electrical conductivity: Alternating current cell with electrodes; for viscosity: Capillary tube (Ostwald / Ubbelohde) method; for mass density: Vibrating tube method
[2] = refractive index (Na D-line) (dimensionless); an = ratio of the nth substance listed; settings: 101 kPa, Liquid, Standard Abbe refractometry

OCC(O)CO [glycerol] + O=C([O-])[O-].[K+].[K+]
Settings | electrical conductivity, [1] [S/m] | mass density, [1] [kg/m3] | refractive index, [2] | surface tension liquid-gas, [1] [mN/m] | viscosity, [1] [mPa·s]
293.15 K, a1 = 4 | 0.0008 | 1477.9 | 1.4922 | 50.6 | 28104
293.15 K, a1 = 5 | 0.0034 | 1447.2 | 1.491 | 64.4 | 18018
293.15 K, a1 = 6 | 0.0052 | 1423.6 | 1.4897 | 69.5 | 5500
303.15 K, a1 = 4 | 0.003 | 1472 | 1.4906 | 46.1 | 10100
303.15 K, a1 = 5 | 0.0082 | 1441.4 | 1.4894 | 59.1 | 8899
303.15 K, a1 = 6 | 0.0112 | 1417.8 | 1.4882 | 66.8 | 3500
313.15 K, a1 = 4 | 0.0069 | 1466.1 | 1.4888 | 45.2 | 3330
313.15 K, a1 = 5 | 0.0154 | 1435.5 | 1.488 | 56.7 | 3440
313.15 K, a1 = 6 | 0.0247 | 1411.9 | 1.4866 | 65.6 | 1710
323.15 K, a1 = 4 | 0.0162 | 1460.2 | 1.4862 | 44.4 | 1400
323.15 K, a1 = 5 | 0.0371 | 1429.6 | 1.4853 | 55.3 | 1418
323.15 K, a1 = 6 | 0.0393 | 1405.9 | 1.4845 | 64 | 767
333.15 K, a1 = 4 | 0.0313 | 1454.1 | 1.4857 | 43.4 | 663
333.15 K, a1 = 5 | 0.076 | 1423.4 | 1.4839 | 54.7 | 646
333.15 K, a1 = 6 | 0.121 | 1399.8 | 1.4827 | 63 | 378
343.15 K, a1 = 4 | 0.0583 | 1448.1 | 1.4846 | 42.6 | 323
343.15 K, a1 = 5 | 0.139 | 1417.5 | 1.4818 | 53.7 | 323
343.15 K, a1 = 6 | 0.163 | 1393.8 | 1.4808 | 62.2 | 203
353.15 K, a1 = 4 | 0.204 | 1442.2 | 1.4839 | 41.6 | 200
353.15 K, a1 = 5 | 0.313 | 1411.4 | 1.4783 | 51.3 | 178
353.15 K, a1 = 6 | 0.341 | 1387.7 | 1.4789 | 61.5 | 115

O=C([O-])[O-].[K+].[K+] [potassium carbonate] + OCCO
Settings | electrical conductivity, [1] [S/m] | mass density, [1] [kg/m3] | refractive index, [2] | surface tension liquid-gas, [1] [mN/m] | viscosity, [1] [mPa·s]
293.15 K, a2 = 6 | 0.22 | 1338.8 | 1.4598 | 28.4 | 227
293.15 K, a2 = 7 | 0.238 | 1314 | 1.4565 | 28.3 | 149
293.15 K, a2 = 8 | 0.231 | 1295.5 | 1.457 | 27.8 | 117
303.15 K, a2 = 6 | 0.34 | 1332.1 | 1.4576 | 27.8 | 120
303.15 K, a2 = 7 | 0.425 | 1307.3 | 1.4548 | 27.7 | 81
303.15 K, a2 = 8 | 0.365 | 1288.8 | 1.4556 | 27.3 | 66
313.15 K, a2 = 6 | 0.51 | 1325.3 | 1.455 | 27.3 | 69
313.15 K, a2 = 7 | 0.537 | 1300.6 | 1.4525 | 27.2 | 49
313.15 K, a2 = 8 | 0.531 | 1282.1 | 1.4536 | 26.7 | 40
323.15 K, a2 = 6 | 0.78 | 1318.5 | 1.4533 | 26.8 | 42
323.15 K, a2 = 7 | 0.801 | 1293.8 | 1.4507 | 26.7 | 31
323.15 K, a2 = 8 | 0.73 | 1275.3 | 1.4513 | 26.1 | 26
333.15 K, a2 = 6 | 1.17 | 1311.7 | 1.4519 | 26.1 | 28
333.15 K, a2 = 7 | 1.18 | 1287 | 1.449 | 26 | 21
333.15 K, a2 = 8 | 1.04 | 1268.5 | 1.4496 | 25.5 | 18
343.15 K, a2 = 6 | 1.51 | 1304.9 | 1.4485 | 25.5 | 20
343.15 K, a2 = 7 | 1.53 | 1280.1 | 1.4459 | 25.3 | 15
343.15 K, a2 = 8 | 1.4 | 1261.7 | 1.4469 | 24.8 | 13
